This note sets out measurements from patent US8779140B2, “Crystal of fused pyridine compound salt” (Astellas Pharma Inc., priority 2010, dated 2014).

A short description of data set [1]: Solubility measured with a 80% aqueous EtOH solution. Format: physicochemical. Conditions: organic solvent or mixture. How it is done: The solubility was measured with a 80% aqueous EtOH solution. Further, the crystals of 0.5 L-tartrate and lactate were prepared as crystallized from a crystallization solvent described in Tables below.
A short description of data set [2]: Stability test of crystals (storage at 70° C., 70° C./75% RH, Xe lamp; HPLC related substances and powder X-ray diffraction). Conditions: no humidity at 70° C.
Procedure: A sample was stored with light-shielding under the condition of 70° C., 70° C.·75% RH for 2 weeks. The total amount of the related substance after storage was measured using HPLC, and the change in crystal forms was measured by means of powder X-ray diffraction.
The test drug was stored under the following conditions.
Initial (Stored under the cooling conditions): About 5 mg was collected with a 10 mL centrifuge tube and stored in a refrigerator.
70° C. (stored at 70° C.): About 5 mg was collected with a 10 mL centrifuge tube and stored in a mini-jet oven at 70° C. for 14 days.
70° C.·75% RH (stored at 70° C. and 75% relative humidity): About 5 mg was collected with a 10 mL centrifuge tube, a sample was put into a desiccator at 75% relative humidity in the open state, and the desiccator was stored in a mini jet oven at 70° C. for 14 days.
Xe lamp: This product was placed in a plastic Petri dish and stored for 40 hours under a Xe lamp (25° C. RH 60%, total irradiance 1,200,000 lx·h, total near-ultraviolet radiation energy 200 W·h/m^2 or more).
Initial, a product stored at 70° C. and a product stored at 70° C. and 75% RH were dissolved in a mixed solution (1:1) of MeCN for LC/water to exactly 10 mL, which was used as a sample solution.
HPLC; Detector: ultraviolet absorptiometer (wavelength measurement; 254 nm), column: Inertsil ODS-3 (particle diameter 3 μm, 2.1 mm×100 mm), column temperature: 40° C. (column thermostat vessel was used), mobile phase: Liquid A—1000 mL of water was added to perchlorate buffer at pH 2.5 {sodium perchlorate (NaClO4.H2O) (1.40 g) for dissolution, and adjusted to a pH of 2.5 with diluted perchloric acid (dilution of 100 mL of a commercially available 60% perchloric acid solution with 1900 mL of water)}. Liquid B—MeCN for LC, flow rate: 0.2 mL/min, Injection amount: 1 μL, (gradient setting: Liquid B 10% at 0.0 minutes to Liquid B 90% at 35 minutes).
Powder X-ray diffraction; tube: Cu, tube current: 300 mA, tube voltage, 50 kV, sampling width: 0.02°, scan speed: 4°/min, wavelength: 1.54056 angstroms, measured diffraction angle range (2θ): 2.5 to 40°

One may read the Solubility as the concentration that dissolves in the medium under given conditions.

`NC(=O)c1cnc2[nH]ccc2c1N[C@@H]1[C@@H]2CC3C[C@H]1C[C@@](O)(C3)C2` [Form A01, 4-{[(1R,2s,3S,5s,7s)-5-hydroxy-2-adamantyl]amino}-1H-pyrrolo[2,3-b]pyridine-5-carboxamide monohydrate, reference compound]: the Solubility in data set [1] is less than 10000 µg/mL. In data set [2], the “Change of crystal on storage” value is on record as “transition to an anhydride in a free form”.
